What follows are molecules tested against T1, OsCERK1-ECD (Oryza sativa, UniProt A0A0P0XII1) (assay: microscale thermophoresis, label-free). Details: 50 mM Tris-HCl pH 7.8, 150 mM NaCl, 10 mM MgCl2, 0.05% Tween-20.
T1 construct: gene CERK1; N-terminal gp67 signal peptide for secretion, C-terminal His6; baculovirus, Trichoplusia ni High Five cells; secreted soluble protein
T1 sequence (A0A0P0XII1 19-240 limits assumed): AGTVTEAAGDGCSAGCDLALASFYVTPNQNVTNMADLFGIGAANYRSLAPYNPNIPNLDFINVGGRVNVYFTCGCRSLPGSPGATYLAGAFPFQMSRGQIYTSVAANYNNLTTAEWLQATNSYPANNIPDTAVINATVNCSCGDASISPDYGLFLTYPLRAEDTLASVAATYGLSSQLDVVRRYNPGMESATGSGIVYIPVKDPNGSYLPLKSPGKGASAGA
Type: binding

SMILES | Kd [nM]
OC[C@H]1O[C@@H](O[C@H]2[C@H](O)[C@@H](O)[C@H](O[C@H]3[C@H](O)[C@@H](CO)OC(O)[C@@H]3O)O[C@@H]2CO)[C@H](O)[C@@H](O)[C@@H]1O (stereo partly drawn) [BGTRIB, 3^1-β-D-cellobiosyl-glucose] | 1950 ± 450
OC[C@H]1O[C@@H](O[C@H]2[C@H](O)[C@@H](O)[C@H](O[C@H]3[C@H](O)[C@@H](O)C(O)O[C@@H]3CO)O[C@@H]2CO)[C@H](O)[C@@H](O)[C@@H]1O (some centres unmarked) [CTR, cellotriose] | 4280 ± 1670
OC[C@H]1O[C@@H](O[C@H]2[C@H](O)[C@@H](O)[C@H](O[C@H]3[C@H](O)[C@@H](O)[C@H](O[C@H]4[C@H](O)[C@@H](O)C(O)O[C@@H]4CO)O[C@@H]3CO)O[C@@H]2CO)[C@H](O)[C@@H](O)[C@@H]1O (some centres unmarked) [CTE, cellotetraose] | 2840 ± 890
OC[C@H]1O[C@@H](O[C@@H]2[C@@H](O)[C@H](O[C@H]3[C@H](O)[C@@H](O)C(O)O[C@@H]3CO)O[C@H](CO)[C@H]2O)[C@H](O)[C@@H](O)[C@@H]1O (stereo partly drawn) [BGTRIA, 3^2-β-D-glucosyl-cellobiose] | 4380 ± 580
OC[C@H]1O[C@@H](O[C@H]2[C@H](O)[C@@H](O)[C@H](O[C@H]3[C@H](O)[C@@H](O)[C@H](O[C@H]4[C@H](O)[C@@H](CO)OC(O)[C@@H]4O)O[C@@H]3CO)O[C@@H]2CO)[C@H](O)[C@@H](O)[C@@H]1O (stereo partly drawn) [BGTETB, 3^1-β-D-cellotriosyl-glucose] | 2900 ± 570
